In US20250163104A1, “MACROCYCLIC IMMUNOMODULATORS” (priority 2021, published 2025):
Where a SMILES comes first, the peptide text is derived from it. Bridges are numbered along the chain shown (N, C = ends). [ ]: non-standard residue; d: D form. The star is where a group is joined. ξ: configuration not given here. Bip = N[C@@H](Cc1ccc(-c2ccccc2)cc1)C(=O)O; hArg = N=C(N)NCCCC[C@H](N)C(=O)O; Cha = N[C@@H](CC1CCCCC1)C(=O)O; Ile(3ξ) = CCC(C)[C@H](N)C(=O)O; NMeN = CN[C@@H](CC(N)=O)C(=O)O; Thr(3ξ) = CC(O)[C@H](N)C(=O)O; Carboxymethyl = O=C(O)C*; NMeA = CN[C@@H](C)C(=O)O; Nle = CCCC[C@H](N)C(=O)O; Orn = NCCC[C@H](N)C(=O)O; Dab = NCC[C@H](N)C(=O)O; Abu = CC[C@H](N)C(=O)O

target: T1, human PD-1 / PD-L1-Ig binding on Jurkat cell line over-expressing human PD-1 (Jurkat-PD-1) (Homo sapiens, UniProt Q15116); experiment: Jurkat-PD-1 Cell Binding High-Content Screening Assay (CBA); assay type: cell-based; details: Jurkat-PD-1 cells, PE-labeled PD-L1-Ig 20 nM final; read-out: Jurkat HPD1_PDL1 IC50
T1 construct: expressed in transfected cells; host or cells: Jurkat
T1 sequence (Q15116 25-288): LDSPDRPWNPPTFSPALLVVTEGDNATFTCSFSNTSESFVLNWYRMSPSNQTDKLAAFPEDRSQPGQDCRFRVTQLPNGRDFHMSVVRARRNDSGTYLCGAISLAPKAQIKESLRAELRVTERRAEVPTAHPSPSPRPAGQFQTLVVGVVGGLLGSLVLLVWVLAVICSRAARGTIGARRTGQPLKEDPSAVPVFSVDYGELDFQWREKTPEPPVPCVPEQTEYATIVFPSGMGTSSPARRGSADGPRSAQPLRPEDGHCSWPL
Method in brief: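 Compounds were preincubated with Jurkat-hPD-1 cells in DMEM plus 10% fetal calf serum for 2 h at 37° C. Phycoerythrin-labeled PD-L1-Ig (20 nM final) was then added for 1 hour. Cells were fixed in 4% paraformaldehyde with Hoechst 33342, and bound fluorescence was quantified by high-content imaging.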

Compound | IC50 [nM]
CC(C)C[C@H]1NC(=O)[C@H](CCCN)NC(=O)[C@H](CCC(=O)O)NC(=O)[C@H](Cc2ccc(-c3ccccc3)cc2)NC(=O)[C@H](C(C)C)NC(=O)[C@H](Cc2c[nH]c3ccccc23)NC(=O)[C@H](CC(=O)O)NC(=O)[C@H](Cc2ccc(OCC(=O)O)cc2)NC(=O)[C@H](Cc2cnc[nH]2)NC(=O)CSC[C@@H](C(=O)N[C@@H](CC(N)=O)C(N)=O)NC(=O)[C@H](C(C)O)NC(=O)[C@H](C(C)C)NC(=O)[C@H](CC2CCCCC2)NC(=O)[C@H](CCN)NC1=O (stereo partly drawn) [Compound 2562] ({CH2CO}-HY(Carboxymethyl)DWV[Bip]E[Orn][dL][Dab][Cha]V[Thr(3ξ)]CN-NH2; thioether N-14) | 6.5
CC[C@H](NC(=O)[C@@H]1CSCC(=O)N[C@@H](Cc2cnc[nH]2)C(=O)N[C@@H](Cc2ccc(OCC(=O)O)cc2)C(=O)N[C@@H](CC(=O)O)C(=O)N[C@@H](Cc2c[nH]c3ccccc23)C(=O)N[C@@H](C(C)C)C(=O)N[C@@H](Cc2ccc(-c3ccccc3)cc2)C(=O)N[C@@H](C(C)C)C(=O)N[C@@H](CCCN)C(=O)N[C@H](CC(C)C)C(=O)N[C@@H](CCN)C(=O)N[C@@H](CC2CCCCC2)C(=O)N[C@@H](C(C)C)C(=O)N[C@@H](CO)C(=O)N1)C(N)=O [Compound 2564] ({CH2CO}-HY(Carboxymethyl)DWV[Bip]V[Orn][dL][Dab][Cha]VSC[Abu]-NH2; thioether N-14) | 18.8
CC(C)C[C@H]1NC(=O)[C@H](CCCN)NC(=O)[C@H](C(C)C)NC(=O)[C@H](Cc2ccc(-c3ccccc3)cc2)NC(=O)[C@H](C(C)C)NC(=O)[C@H](Cc2c[nH]c3ccccc23)NC(=O)[C@H](CC(=O)O)NC(=O)[C@H](Cc2ccc(OCC(=O)O)cc2)NC(=O)[C@H](CCCCNC(=N)N)NC(=O)CSC[C@@H](C(=O)N(C)[C@@H](CC(N)=O)C(N)=O)NC(=O)[C@H](CO)NC(=O)[C@H](C(C)C)NC(=O)[C@H](CC2CCCCC2)NC(=O)[C@H](CCN)NC1=O [Compound 2567] ({CH2CO}-[hArg]Y(Carboxymethyl)DWV[Bip]V[Orn][dL][Dab][Cha]VSC[NMeN]-NH2; thioether N-14) | 23.9
CC(C)C[C@H]1NC(=O)[C@H](CCCN)NC(=O)[C@H](C(C)C)NC(=O)[C@H](Cc2ccc(-c3ccccc3)cc2)NC(=O)[C@H](C(C)C)NC(=O)[C@H](Cc2c[nH]c3ccccc23)NC(=O)[C@H](CC(=O)O)NC(=O)[C@H](Cc2ccc(OCC(=O)O)cc2)NC(=O)[C@H](C(C)O)NC(=O)CSC[C@@H](C(=O)N(C)[C@@H](CC(N)=O)C(N)=O)NC(=O)[C@H](CO)NC(=O)[C@H](C(C)C)NC(=O)[C@H](CC2CCCCC2)NC(=O)[C@H](CCN)NC1=O (stereo partly drawn) [Compound 2568] ({CH2CO}-[Thr(3ξ)]Y(Carboxymethyl)DWV[Bip]V[Orn][dL][Dab][Cha]VSC[NMeN]-NH2; thioether N-14) | 67.1
CCC(C)[C@@H]1NC(=O)[C@H](Cc2ccc(-c3ccccc3)cc2)NC(=O)[C@H](C(C)O)NC(=O)[C@H](Cc2c[nH]c3ccccc23)NC(=O)[C@H](CC(=O)O)NC(=O)[C@H](Cc2ccc(OCC(=O)O)cc2)NC(=O)[C@H](C(C)O)NC(=O)CSC[C@@H](C(=O)N[C@@H](CC(N)=O)C(=O)O)NC(=O)[C@H](CO)NC(=O)[C@H](C(C)C)NC(=O)[C@H](CC(C)C)NC(=O)[C@H](CCN)NC(=O)[C@@H](CC(C)C)NC(=O)[C@H](CCCN)NC1=O (stereo partly drawn) [Compound 2572] ({CH2CO}-[Thr(3ξ)]Y(Carboxymethyl)DW[Thr(3ξ)][Bip][Ile(3ξ)][Orn][dL][Dab]LVSCN-OH; thioether N-14) | 77.4

The remaining compounds from weak to strong by IC50, led by results:

IC50 [nM] | Compound
121 | CC(C)C[C@H]1NC(=O)[C@H](CCCN)NC(=O)CNC(=O)[C@H](Cc2ccc(-c3ccccc3)cc2)NC(=O)[C@H](C(C)C)NC(=O)[C@H](Cc2c[nH]c3ccccc23)NC(=O)[C@H](CC(=O)O)NC(=O)[C@H](Cc2ccc(OCC(=O)O)cc2)NC(=O)[C@H](C(C)O)NC(=O)CSC[C@@H](C(=O)N[C@@H](CC(N)=O)C(N)=O)NC(=O)[C@H](CO)NC(=O)[C@H](C(C)C)NC(=O)[C@H](CC2CCCCC2)NC(=O)[C@H](CCN)NC1=O (stereo partly drawn) [Compound 2566] ({CH2CO}-[Thr(3ξ)]Y(Carboxymethyl)DWV[Bip]G[Orn][dL][Dab][Cha]VSCN-NH2; thioether N-14)
26.1 | CCCC[C@@H]1NC(=O)[C@H](Cc2c[nH]c3ccccc23)NC(=O)[C@H](CC(=O)O)NC(=O)[C@H](Cc2ccc(OCC(=O)O)cc2)NC(=O)[C@H](C(C)O)NC(=O)CSC[C@@H](C(=O)N[C@@H](CC(N)=O)C(=O)O)NC(=O)[C@H](CO)NC(=O)[C@H](C(C)C)NC(=O)[C@H](CC(C)C)NC(=O)[C@H](CCN)NC(=O)[C@@H](CC(C)C)NC(=O)[C@H](CCCN)NC(=O)[C@H](C(C)CC)NC(=O)[C@H](Cc2ccc(-c3ccccc3)cc2)NC1=O (stereo partly drawn) [Compound 2571] ({CH2CO}-[Thr(3ξ)]Y(Carboxymethyl)DW[Nle][Bip][Ile(3ξ)][Orn][dL][Dab]LVSCN-OH; thioether N-14)
18.5 | CC(C)C[C@H]1NC(=O)[C@H](CCCN)NC(=O)[C@H](C(C)C)NC(=O)[C@H](Cc2ccc(-c3ccccc3)cc2)NC(=O)[C@H](C(C)C)NC(=O)[C@H](Cc2c[nH]c3ccccc23)NC(=O)[C@H](CC(=O)O)NC(=O)[C@H](Cc2ccc(OCC(=O)O)cc2)NC(=O)[C@H](CCCCNC(=N)N)NC(=O)CSC[C@@H](C(=O)N(C)[C@@H](C)C(N)=O)NC(=O)[C@H](CO)NC(=O)[C@H](C(C)C)NC(=O)[C@H](CC2CCCCC2)NC(=O)[C@H](CCN)NC1=O [Compound 2569] ({CH2CO}-[hArg]Y(Carboxymethyl)DWV[Bip]V[Orn][dL][Dab][Cha]VSC[NMeA]-NH2; thioether N-14)
15.2 | CC(C)C[C@H]1NC(=O)[C@H](CCCN)NC(=O)[C@H](C(C)C)NC(=O)[C@H](Cc2ccc(-c3ccccc3)cc2)NC(=O)[C@H](C(C)C)NC(=O)[C@H](Cc2c[nH]c3ccccc23)NC(=O)[C@H](CC(=O)O)NC(=O)[C@H](Cc2ccc(OCC(=O)O)cc2)NC(=O)[C@H](C(C)O)NC(=O)CSC[C@@H](C(=O)N(C)[C@@H](C)C(N)=O)NC(=O)[C@H](CO)NC(=O)[C@H](C(C)C)NC(=O)[C@H](CC2CCCCC2)NC(=O)[C@H](CCN)NC1=O (stereo partly drawn) [Compound 2570] ({CH2CO}-[Thr(3ξ)]Y(Carboxymethyl)DWV[Bip]V[Orn][dL][Dab][Cha]VSC[NMeA]-NH2; thioether N-14)
3.3 | CC(C)C[C@H]1NC(=O)[C@H](CCCN)NC(=O)[C@H](C(C)C)NC(=O)[C@H](Cc2ccc(-c3ccccc3)cc2)NC(=O)[C@H](C(C)C)NC(=O)[C@H](Cc2c[nH]c3ccccc23)NC(=O)[C@H](CC(=O)O)NC(=O)[C@H](Cc2ccc(OCC(=O)O)cc2)NC(=O)[C@H](C(C)O)NC(=O)CSC[C@@H](C(=O)N[C@H](CC(N)=O)C(N)=O)NC(=O)[C@H](CO)NC(=O)[C@H](C(C)C)NC(=O)[C@H](CC2CCCCC2)NC(=O)[C@H](CCN)NC1=O (stereo partly drawn) [Compound 2565] ({CH2CO}-[Thr(3ξ)]Y(Carboxymethyl)DWV[Bip]V[Orn][dL][Dab][Cha]VSC[dN]-NH2; thioether N-14)
3 | CC(C)C[C@H]1NC(=O)[C@H](CCCN)NC(=O)[C@H](C(C)C)NC(=O)[C@H](Cc2ccc(-c3ccccc3)cc2)NC(=O)[C@H](C(C)C)NC(=O)[C@H](Cc2c[nH]c3ccccc23)NC(=O)[C@H](CC(=O)O)NC(=O)[C@H](Cc2ccc(OCC(=O)O)cc2)NC(=O)[C@H](Cc2cnc[nH]2)NC(=O)CSC[C@@H](C(=O)N[C@H](C)C(N)=O)NC(=O)[C@H](C(C)O)NC(=O)[C@H](C(C)C)NC(=O)[C@H](CC2CCCCC2)NC(=O)[C@H](CCN)NC1=O (stereo partly drawn) [Compound 2563] ({CH2CO}-HY(Carboxymethyl)DWV[Bip]V[Orn][dL][Dab][Cha]V[Thr(3ξ)]C[dA]-NH2; thioether N-14)
